Reference: patent US10533228B2, “3.beta-hydroxysteroid dehydrogenase in steroid dependent disease” (THE CLEVELAND CLINIC FOUNDATION, priority 2013, dated 2020)
Where a SMILES comes first, the peptide text is derived from it. The star is where a group is joined. Cbz = O=C(OCc1ccccc1)*

What was measured:
3βHSD1 (367N) = experiment: Western blot of endogenous 3βHSD1 protein in LAPC4 after degradation inhibitor; type: cell-based, human; details: LAPC4, 10 μM
Source text: For Western blot analysis, whole cell protein extract was harvested using RIPA buffer (Sigma-Aldrich) with protease inhibitor cocktail (Roche). […] The protein was transferred to a PVDF membrane and was detected by mouse anti-3βHSD1 (Sigma), rabbit anti-HA (Santa Cruz Biotechnology, Santa Cruz, Calif.), and mouse anti-β-actin (Sigma) antibodies. […]

[1] = tested on: polyubiquitinated 3βHSD1(367T); experiment: Anti-ubiquitin immunoprecipitation in LNCaP; type: cell-based, human; details: 10 uM, 8 hours
[2] = tested on: polyubiquitinated 3βHSD1 (367N); experiment: Anti-ubiquitin immunoprecipitation in LAPC4; type: cell-based, human; details: LAPC4, 10 μM; 8 hours
Description: Pre-cleared lysate was incubated with mouse anti-ubiquitin antibody (Santa Cruz) at 4° C. for 3 hours and followed by adding 40 μl of Protein AG UltraLink Resin (Thermo Scientific) for another hour for pull down. After extensive washing with lysis buffer, the purified proteins were eluted with 25 μl 2×SDS sample buffer and analyzed by Western blot.

3βHSD1 (367T) = experiment: Western blot of endogenous 3βHSD1 protein in LNCaP after proteasome inhibitor; type: cell-based, human; details: 10 μM, 8 hours
Description: For Western blot analysis, whole cell protein extract was harvested using RIPA buffer (Sigma-Aldrich) with protease inhibitor cocktail (Roche). Protein concentration was determined by BCA Protein Assay Reagent (Thermo Scientific, Rockford, Ill.), and 20 μg protein was resolved by 8.5% SDS-PAGE. The protein was transferred to a PVDF membrane and was detected by mouse anti-3βHSD1 (Sigma), rabbit anti-HA (Santa Cruz Biotechnology, Santa Cruz, Calif.), and mouse anti-β-actin (Sigma) antibodies. To determine the role of the ERAD pathway in 3βHSD1 stability, cells were treated with Eeyarestatin (Sigma) for 6 hours before harvesting cell lysate.

LNCaP xenografts = experiment: LNCaP xenograft CRPC growth in orchiectomized mice with DHEA pellet; type: in vivo, mouse; details: orchiectomy and DHEA pellet
Description: Mouse xenograft studies and abiraterone acetate treatment were done as described in detail previously. Li et al., Clin Cancer Res 18, 3571-3579 (2012). Briefly, male NOD/SCID mice 6 to 8 weeks of age were obtained from the UT Southwestern Animal Resources Center, underwent surgical orchiectomy and a DHEA pellet (5 mg 90-day sustained-release) implantation and 2 days later underwent subcutaneous injection with 7×10^6 LAPC4 cells. Tumors reaching 300 mm^3 volume were treated with intraperitoneal abiraterone acetate or vehicle (n=8 mice per treatment) once daily for 5 days per week for 4 weeks. Tumors were fresh frozen upon mouse sacrifice. For the studies of mutant 3βHSD1 knockdown, LNCaP cells (7×10^6) stably expressing shHSD3B1 #1, #2 and shCTRL were subcutaneously injected with matrigel into eugonadal NOD/SCID mice (n=15 per group). Mice with tumors reaching 100 mm^3 volume underwent surgical castration and DHEA pellet implantation. Time from castration to tumor volume ≥600 mm^3 was assessed. For the comparison between wild type and mutant 3βHSD1, LAPC4 cells (7×10^6) stably expressing pLVX-Tight-Puro-HSD3B1 (367N) or pLVX-Tight-Puro-HSD3B1 (367T) were subcutaneously injected into surgically orchiectomized NOD/SCID mice supplemented with a DHEA (5 mg 90-day sustained-release) pellet. Tumor diameters were measured by digital calipers two or three times per week.

3βHSD1 = experiment: Lentiviral shRNA knockdown, 3βHSD1 immunoblot in LNCaP; type: cell-based, human; details: stable lentiviral expression
Description: Lentiviral vector construction, viral packaging and infection were performed as previously described. Chang et al., Proc. Natl. Acad. Sci. USA, 108, 13728-13733 (2011). Briefly, […] miR30-styled shRNA sequences (#1: 5′-[…] […]-3′ (SEQ ID NO: 9); #2: 5′-[…] […]-3′ (SEQ ID NO: 10)) against HSD3B1 were PCR amplified and cloned into the pGIPZ vector (Open Biosystems, Huntsville, Ala.) and confirmed by sequencing. Virus packaging was carried out in 293T cells by co-transfecting 10 μg each of pGIPZ, pMD2.G, and psPAX2 vector. To increase transduction efficiency, 30 mL supernatant containing lentiviral particles were collected, filtered with a 0.45 μm nitrocellulose membrane and concentrated by ultracentrifugation at 19,000 rpm for 2 hours and 20 minutes at room temperature without brake. […]
For Western blot analysis, whole cell protein extract was harvested using RIPA buffer (Sigma-Aldrich) with protease inhibitor cocktail (Roche). Protein concentration was determined by BCA Protein Assay Reagent (Thermo Scientific, Rockford, Ill.), and 20 μg protein was resolved by 8.5% SDS-PAGE. The protein was transferred to a PVDF membrane and was detected by mouse anti-3βHSD1 (Sigma), rabbit anti-HA (Santa Cruz Biotechnology, Santa Cruz, Calif.), and mouse anti-β-actin (Sigma) antibodies. […]

CC1(C)C(N(O)C(=O)Nc2ccc(Cl)cc2)N(c2ccc(Cl)cc2)C(=O)N1CC(=O)N/N=C/C=C/c1ccc([N+](=O)[O-])o1 (stereo not drawn) [Eeyarestatin I]
endogenous 3βHSD1 protein (3βHSD1 (367N)): increases endogenous 3βHSD1 protein

CC(C)C[C@@H](C=O)NC(=O)[C@H](CC(C)C)NC(=O)[C@H](CC(C)C)NC(=O)OCc1ccccc1 [MG132] (Cbz-Leu-Leu-Leu-aldehyde)
polyubiquitinated 3βHSD1(367T) protein [1]: no increase in polyubiquitinated 3βHSD1(367T) protein | polyubiquitinated 3βHSD1 (367N) protein [2]: increase in polyubiquitinated 3βHSD1 (367N) protein | 3βHSD1 (367T) protein level (3βHSD1 (367T)): no 3βHSD1 (367T) protein increase | 3βHSD1 (367N) protein level (3βHSD1 (367N); 8 hours): reverses 3βHSD1 (367N) protein loss

B1: shHSD3B1 #1: lentiviral miR30-styled shRNA against HSD3B1 (SEQ ID NO: 9) (nucleic acid)
chain: TGCTGTTGACAGTGAGCGACCTCATACAGAAAGTGACAAGTAGTGAAGCCACAGATGTACTTGTCACTTTCTGTATGAGGCTGCCTACTGCCTCGGA
CRPC growth (days from orchiectomy to tumor volume ≥600 mm^3) (LNCaP xenografts): blocks CRPC growth | 3βHSD1 protein expression (3βHSD1): silences 3βHSD1 protein expression

B2: shHSD3B1 #2: lentiviral miR30-styled shRNA against HSD3B1 (SEQ ID NO: 10) (nucleic acid)
chain: TGCTGTTGACAGTGAGCGAAGAGGAAAGACCATGTGGTTTTAGTGAAGCCACAGATGTAAAACCACATGGTCTTTCCTCTGTGCCTACTGCCTCGGA
CRPC growth (days from orchiectomy to tumor volume ≥600 mm^3) (LNCaP xenografts): blocks CRPC growth | 3βHSD1 protein expression (3βHSD1): silences 3βHSD1 protein expression
